Experimental data reported in ChEMBL document CHEMBL4342448, “Antcamphorols A-K, Cytotoxic and ROS Scavenging Triterpenoids from Antrodia camphorata” (J Nat Prod, 2020).

Key:
[1] = tested on: L02; assay: Cytotoxicity against human L02 cells incubated for 24 hrs by MTT assay; type: cell-based; conditions: l02, 24 h
[2] = tested on: U-251; assay: Cytotoxicity against human U251 cells incubated for 24 hrs by MTT assay; type: functional, cell-based; conditions: U-251, 24 h
[3] = tested on: MCF7; assay: Cytotoxicity against human MCF7 cells incubated for 24 hrs by MTT assay; type: functional, cell-based; conditions: MCF7, 24 h
[4] = tested on: SW480; assay: Cytotoxicity against human SW480 cells incubated for 24 hrs by MTT assay; type: functional, cell-based; conditions: SW480, 24 h
[5] = tested on: HUVEC; assay: Induction of ROS scavenging activity in HUVEC assessed as reduction in high glucose-induced intracellular ROS level at 20 uM incubated for 6 hrs by DCFH-DA/Hoechst 33342 staining based assay relative to control; type: functional, Homo sapiens; design: scale not given: the % may be the effect or the level left
[6] = tested on: HUVEC; assay: Induction of ROS scavenging activity in HUVEC assessed as reduction in high glucose-induced intracellular ROS level at 5 uM incubated for 6 hrs by DCFH-DA/Hoechst 33342 staining based assay relative to control; type: functional, Homo sapiens; design: scale not given: the % may be the effect or the level left

Structure (SMILES) | Activity [1] | IC50 [2] [µM] | IC50 [3] [µM] | IC50 [4] [µM] | Activity [5] [%] | Activity [6] [%]
C=C(CC[C@@H](C)[C@H]1CC[C@H]2C3=C(C(=O)C[C@]12C)[C@@]1(C)CC[C@@H](O)[C@](C)(O)[C@@H]1C[C@@H]3O)[C@@H](C)C(=O)O | Non-Toxic | > 100 | > 100 | > 100 |  | 
C=C(CC[C@@H](C)[C@H]1CC[C@H]2C3=C(C(=O)[C@H](O)[C@]12C)[C@@]1(C)CC[C@@H](O)[C@@H](C)[C@@H]1CC3=O)[C@@H](C)C(=O)O | Non-Toxic | > 100 | > 100 | > 100 | 70.5 | 
C=C(CC[C@@H](C)[C@H]1CC[C@H]2C3=C(C(=O)[C@H](O)[C@]12C)[C@@]1(C)CC[C@@H](O)[C@@H](C)[C@@H]1CC3=O)[C@H](C)C(=O)O | Non-Toxic | > 100 | > 100 | > 100 |  | 
C=C(CC[C@@H](C)[C@H]1CC[C@H]2C3=C(C(=O)C[C@]12C)[C@@]1(C)CCC(=O)[C@@H](C)[C@@H]1C[C@@H]3O)[C@H](C)C(=O)O | Non-Toxic | > 100 | > 100 | > 100 |  | 
C=C(CC[C@@H](C)[C@H]1CC[C@H]2C3=C(C(=O)C[C@]12C)[C@@]1(C)CCC(=O)[C@@H](C)[C@@H]1C[C@@H]3O)[C@@H](C)C(=O)O | Non-Toxic | > 100 | > 100 | > 100 |  | 
C=C(CC[C@@H](C)[C@H]1CC[C@H]2C3=C(C(=O)C[C@]12C)[C@@]1(C)CC[C@@H](O)[C@](C)(O)[C@@H]1C[C@@H]3O)[C@H](C)C(=O)O | Non-Toxic | > 100 | > 100 | > 100 |  | 
C=C(CC[C@@H](C(=O)O)[C@H]1C[C@H](O)[C@@]2(C)C3=CC[C@H]4C(C)(C)[C@@H](O)CC[C@]4(C)C3=CC[C@]12C)C(C)C | Non-Toxic | > 100 | > 100 | > 100 |  | 
C=C(CC[C@@H](C)[C@H]1CC[C@H]2C3=CC[C@H]4[C@H](C)C(=O)CC[C@]4(C)C3=C[C@H](O)[C@]12C)C(C)C | Non-Toxic | > 100 | > 100 | > 100 | 69.9 | 
C=C(CC[C@@H](C)[C@H]1CC[C@H]2C3=CC[C@H]4[C@H](C)C(=O)CC[C@]4(C)C3=CC[C@]12C)C(C)C | Non-Toxic | > 100 | > 100 | > 100 | 63.9 | 
C=C(CC[C@@H](C)[C@H]1CC[C@@]2(O)C3=C(C(=O)C[C@]12C)[C@@]1(C)CCC(=O)[C@@H](C)[C@@H]1CC3)C(C)C | Non-Toxic | > 100 | > 100 | > 100 |  | 
C/C=C(\CO)CC[C@@H](C)[C@H]1CC[C@H]2C3=C(C(=O)C[C@]12C)[C@@]1(C)CC[C@@H](O)[C@](C)(O)[C@@H]1C[C@@H]3O | Non-Toxic | 9.2 | > 100 | > 100 |  | 
CC1=C2C3=C(CC[C@]2(C)[C@@H]([C@H]2CC[C@](CO)(C(C)C)OC2)C1)[C@@]1(C)CC[C@H](O)C(C)(C)[C@@H]1CC3 | Non-Toxic | > 100 | > 100 | > 100 |  | 
C=C(CC[C@@H](C)[C@H]1CC[C@H]2C3=C(C(=O)C[C@]12C)[C@@]1(C)CC[C@@H](O)[C@H](O)[C@@H]1C[C@@H]3O)[C@@H](C)C(=O)O | Non-Toxic | > 100 | > 100 | > 100 |  | 
C=C(CC[C@@H](C)[C@H]1CC[C@H]2C3=C(C(=O)C[C@]12C)[C@@]1(C)CC[C@@H](O)[C@H](O)[C@@H]1C[C@@H]3O)[C@H](C)C(=O)O | Non-Toxic | > 100 | > 100 | > 100 |  | 
C=C(CC[C@@H](C)[C@H]1CC[C@H]2C3=CC[C@H]4[C@H](C)[C@@H](O)CC[C@]4(C)C3=C[C@@H](O)[C@]12C)C(C)C | Non-Toxic | 15.6 | 8.1 | 16.4 |  | 
C=C(CC[C@@H](C)[C@H]1CC[C@H]2C3=CC[C@H]4[C@H](C)C(=O)CC[C@]4(C)C3=C[C@@H](O)[C@]12C)C(C)C | Non-Toxic | > 100 | > 100 | > 100 |  | 
C=C(CC[C@@H](C)[C@H]1CC[C@H]2C3=C(C(=O)C[C@]12C)[C@@]1(C)CCC(=O)[C@@H](C)[C@@H]1C[C@H]3O)C(C)C | Non-Toxic | > 100 | > 100 | > 100 | 66.7 | 
C/C=C(/CO)CC[C@@H](C)[C@H]1CC[C@H]2C3=C(C(=O)C[C@]12C)[C@@]1(C)CC[C@@H](O)[C@](C)(O)[C@@H]1C[C@@H]3O | Non-Toxic | 10.4 | > 100 | > 100 |  | 
C=C1CC[C@H](O)C/C1=C/C=C1\CCC[C@]2(C)[C@@H]([C@H](C)CCCC(C)C)CC[C@@H]12 [CHOLECALCIFEROL] |  |  |  |  |  | 65.4
C=C(CC[C@@H](C(=O)O)[C@H]1CC[C@@]2(C)C3=CC[C@H]4C(C)(C)[C@@H](O)CC[C@]4(C)C3=CC[C@]12C)C(C)C [DEHYDROEBURICOIC ACID] | Non-Toxic | > 100 | > 100 | > 100 | 69.8 | 
C=C(CC[C@@H](C(=O)O)[C@H]1CC[C@@]2(C)C3=C(CC[C@]12C)[C@@]1(C)CC[C@H](O)C(C)(C)[C@@H]1CC3)C(C)C [EBURICOIC ACID] | Non-Toxic | > 100 | > 100 | > 100 |  | 
CCc1c2c(nc3ccc(OC(=O)N4CCC(N5CCCCC5)CC4)cc13)-c1cc3c(c(=O)n1C2)COC(=O)[C@]3(O)CC [IRINOTECAN] |  |  | 0.8 |  |  | 
C=C(CC[C@@H](C(=O)O)[C@H]1C[C@H](O)[C@@]2(C)C3=C(CC[C@]12C)[C@@]1(C)CC[C@H](O)C(C)(C)[C@@H]1CC3)C(C)C [SULFURENIC ACID] | Non-Toxic | > 100 | > 100 | > 100 |  | 
Cn1nnc2c(C(N)=O)ncn2c1=O [TEMOZOLOMIDE] |  | 36.4 |  |  |  | 
